According to patent US20230023559A1, “ARYLMETHYLENE HETEROCYCLIC COMPOUNDS AS KV1.3 POTASSIUM SHAKER CHANNEL BLOCKERS” (D. E. Shaw Research, LLC, priority 2019, published 2023):

Tests used:
[1] = target: hERG channel (Homo sapiens, UniProt Q12809); assay: hERG electrophysiology, automated whole-cell patch clamp (Patchliner)
[2] = target: T1, Kv1.3 potassium channel (Homo sapiens, UniProt P22001); assay: Kv1.3 potassium channel blocker activity, automated whole-cell patch clamp (Patchliner); format: cell-based; details: CHO-K1 cells stably expressing Kv1.3; whole cell current inhibition; read-out: Kv1.3_IC50
T1 construct: expressed in transfected cells
T1 sequence (P22001 whole entry): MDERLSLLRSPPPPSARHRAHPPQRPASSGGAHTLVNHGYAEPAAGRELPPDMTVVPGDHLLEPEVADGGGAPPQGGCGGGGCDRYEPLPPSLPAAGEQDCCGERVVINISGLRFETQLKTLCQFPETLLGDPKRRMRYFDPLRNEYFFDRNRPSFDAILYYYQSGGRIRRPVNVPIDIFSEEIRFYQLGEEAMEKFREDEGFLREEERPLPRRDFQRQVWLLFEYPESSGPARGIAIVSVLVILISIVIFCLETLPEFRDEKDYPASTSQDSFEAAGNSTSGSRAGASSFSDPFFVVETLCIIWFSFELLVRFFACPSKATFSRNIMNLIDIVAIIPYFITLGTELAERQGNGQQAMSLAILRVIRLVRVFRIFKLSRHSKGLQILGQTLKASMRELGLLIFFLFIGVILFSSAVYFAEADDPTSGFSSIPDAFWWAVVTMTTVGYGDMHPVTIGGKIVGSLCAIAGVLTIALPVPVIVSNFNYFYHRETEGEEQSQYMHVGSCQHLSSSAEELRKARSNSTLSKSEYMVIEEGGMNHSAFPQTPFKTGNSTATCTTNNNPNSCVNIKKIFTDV
Outline: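 Peak-current block was recorded on stable Kv1.3 CHO-K1 cells by automated patch clamp, stepping from a −90 mV holding potential to +40 mV for 100 ms at 0.1 Hz with 10 s breaks between trains. Online P/4 leak subtraction, 10 kHz sampling; compound exposure under 10 s per train.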

Sequence of hERG channel (Q12809 whole entry): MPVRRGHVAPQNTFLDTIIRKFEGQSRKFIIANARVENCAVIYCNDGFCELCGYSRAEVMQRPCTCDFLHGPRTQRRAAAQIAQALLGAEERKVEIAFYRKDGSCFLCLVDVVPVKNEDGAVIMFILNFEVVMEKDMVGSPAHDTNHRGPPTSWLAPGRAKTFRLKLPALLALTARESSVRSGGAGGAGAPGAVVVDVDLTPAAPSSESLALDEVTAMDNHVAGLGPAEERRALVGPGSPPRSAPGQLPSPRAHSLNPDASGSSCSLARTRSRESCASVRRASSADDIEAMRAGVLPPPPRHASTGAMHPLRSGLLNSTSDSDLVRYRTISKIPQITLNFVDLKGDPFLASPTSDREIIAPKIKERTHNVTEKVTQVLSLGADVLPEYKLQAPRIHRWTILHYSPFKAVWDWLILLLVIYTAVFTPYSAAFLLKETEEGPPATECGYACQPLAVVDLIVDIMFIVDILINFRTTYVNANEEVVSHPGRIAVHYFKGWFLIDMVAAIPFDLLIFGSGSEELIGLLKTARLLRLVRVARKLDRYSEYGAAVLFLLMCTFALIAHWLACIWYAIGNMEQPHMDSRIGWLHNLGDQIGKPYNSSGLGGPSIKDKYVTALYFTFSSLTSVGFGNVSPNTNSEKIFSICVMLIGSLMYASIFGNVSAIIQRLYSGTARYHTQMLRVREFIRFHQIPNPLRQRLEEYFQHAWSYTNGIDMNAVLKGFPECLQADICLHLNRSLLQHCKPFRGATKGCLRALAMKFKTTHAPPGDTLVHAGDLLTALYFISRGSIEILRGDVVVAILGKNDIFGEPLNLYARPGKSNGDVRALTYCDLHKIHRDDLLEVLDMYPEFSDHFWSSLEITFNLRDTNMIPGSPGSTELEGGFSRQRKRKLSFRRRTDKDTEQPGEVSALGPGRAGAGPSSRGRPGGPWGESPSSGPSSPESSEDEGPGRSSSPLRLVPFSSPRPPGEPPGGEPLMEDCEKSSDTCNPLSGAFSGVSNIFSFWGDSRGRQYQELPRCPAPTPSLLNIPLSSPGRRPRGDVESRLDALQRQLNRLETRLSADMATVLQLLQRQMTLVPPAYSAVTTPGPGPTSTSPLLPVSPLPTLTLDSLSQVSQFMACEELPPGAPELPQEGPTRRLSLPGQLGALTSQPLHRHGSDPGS

Row | SMILES | IC50 [2] [µM] | IC50 [1] [µM]
1 | Oc1cc(Cl)c(Cl)cc1[C@H](O)C1CCNCC1 (single isomer, unassigned) [Compound 7] | < 10 | > 30
2 | CC(=O)N1CCC([C@H](N)c2cc(Cl)c(Cl)cc2O)CC1 (single isomer, unassigned) [Compound 19] | < 10 | < 30
3 | CC(=O)N1CCC([C@@H](N)c2cc(Cl)c(Cl)cc2O)CC1 (single isomer, unassigned) [Compound 20] | < 0.5 | < 30
4 | N[C@H](c1c(O)cc(Cl)c(Cl)c1Cl)C1CCNCC1 (single isomer, unassigned) [Compound 60, Trifluoroacetic Acid] | < 30 | > 30
5 | C[C@@H](N)C(=O)N1CCC([C@@H](N)c2cc(Cl)c(Cl)cc2O)CC1 (single isomer, unassigned) [Compound 69] | < 0.5 | > 30
6 | NC(=O)N1CCC([C@H](N)c2cc(Cl)c(Cl)cc2O)CC1 (single isomer, unassigned) [Compound 81] | < 0.5 | > 30
7 | NC(=O)N1CCC([C@@H](N)c2cc(Cl)c(Cl)cc2O)CC1 (single isomer, unassigned) [Compound 82] | < 10 | > 30
8 | Cc1cc(O)c([C@H](N)C2CCN(C(=O)c3ccc4c(c3)NC(=O)CC4)CC2)cc1Cl [Compound 273, 7-[4-[(R)-amino (5-chloro-2-hydroxy-4-methylphenyl)methyl]piperidine-1-carbonyl]-3,4-dihydro-1H-quinolin-2-one trifluoroacetic acid] | < 10 | –
9 | N[C@@H](c1cc(Cl)c(F)cc1O)C1CCN(C(=O)[C@H](O)CO)CC1 [Compound 285, (2R)-1-[4-[(R)-amino(5-chloro-4-fluoro-2-hydroxyphenyl)methyl]piperidin-1-yl]-2,3-dihydroxypropan-1-one Trifluoroacetic Acid] | < 10 | –
10 | N#Cc1cc(O)c([C@H](N)C2CCN(C(=O)[C@H](O)CO)CC2)cc1Cl [Compound 286, 4-[(R)-amino([1-[(2R)-2,3-dihydroxypropanoyl]piperidin-4-yl])methyl]-2-chloro-5-hydroxybenzonitrile Trifluoroacetic Acid] | < 10 | –
11 | N[C@@H](c1cc(Cl)c(C2CCC2)cc1O)C1CCN(C(=O)[C@H](O)CO)CC1 [Compound 288, (2R)-1-[4-[(R)-amino(5-chloro-4-cyclobutyl-2-hydroxyphenyl)methyl]piperidin-1-yl]-2,3-dihydroxypropan-1-one Trifluoroacetic Acid] | < 30 | –
12 | N[C@@H](c1cc(Cl)ccc1O)C1CCN(C(=O)[C@H](O)CO)CC1 [Compound 295, (2R)-1-[4-[(R)-amino(5-chloro-2-hydroxyphenyl)methyl]piperidin-1-yl]-2,3-dihydroxypropan-1-one] | < 10 | –
13 | Nc1cnc(C(=O)N2CCC([C@@H](N)c3cc(Cl)c(Cl)cc3O)CC2)cn1 [Compound 307, 2-[(R)-amino[1-(5-aminopyrazine-2-carbonyl)piperidin-4-yl]methyl]-4,5-dichlorophenol trifluoroacetic acid] | < 10 | –
14 | CC1(C(N)c2cc(Cl)c(Cl)cc2O)CCN(C(=O)[C@H](O)CO)CC1 (stereo partly drawn) [Compound 309, (2R)-1-[4-[amino(4,5-dichloro-2-hydroxyphenyl)methyl]-4-methylpiperidin-1-yl]-2,3-dihydroxypropan-1-one Trifluoroacetic Acid] | < 10 | –
15 | N[C@@H](c1cc(Cl)c(Cl)cc1O)[C@@H]1CCN(C(=O)[C@H](O)CO)C1 [Compound 311, (2R)-1-[(3R)-3-[(R)-amino(4,5-dichloro-2-hydroxyphenyl)methyl]pyrrolidin-1-yl]-2,3-dihydroxypropan-1-one] | < 10 | –
16 | Cc1cc(O)c([C@H](N)C2CCN(C(=O)c3c[nH]c(=O)c4ccccc34)CC2)cc1Cl [Compound 325, 4-[4-[(R)-amino (5-chloro-2-hydroxy-4-methylphenyl)methyl]piperidine-1-carbonyl]-2H-isoquinolin-1-one trifluoroacetic acid] | < 0.5 | –
17 | N[C@@H](c1cc(Cl)c(Cl)cc1O)[C@@H]1CCCN(C(=O)[C@H](O)CO)C1 [Compound 329, (2R)-1-[(3R)-3-[(R)-amino(4,5-dichloro-2-hydroxyphenyl)methyl]piperidin-1-yl]-2,3-dihydroxypropan-1-one Trifluoroacetic Acid] | < 10 | –

Second part, led by results:

Row | IC50 [2] [µM] | SMILES | IC50 [1] [µM]
18 | < 0.5 | C[C@@H](O)[C@@H](O)C(=O)N1CCC([C@@H](N)c2cc(Cl)c(Cl)cc2O)CC1 (mixture of isomers) [Compound 281, 1-[4-[(R)-amino(4,5-dichloro-2-hydroxyphenyl)methyl]piperidin-1-yl]-(2R,3R)-rel-dihydroxybutan-1-one trifluoro-acetic acid] | > 30
19 | < 10 | Oc1cc(Cl)c(Cl)cc1[C@@H](O)C1CCNCC1 (single isomer, unassigned) [Compound 6] | > 30
20 | < 10 | CC(=O)N[C@H](c1cc(Cl)c(Cl)cc1O)C1CCNCC1 (single isomer, unassigned) [Compound 10] | > 30
21 | < 0.5 | N[C@@H](c1cc(Cl)c(Cl)cc1O)C1CCNCC1 (single isomer, unassigned) [Compound 16, Trifluoroacetic Acid] | > 30
22 | < 10 | N[C@@H](c1c(O)cc(Cl)c(Cl)c1Cl)C1CCNCC1 (single isomer, unassigned) [Compound 61, Trifluoroacetic Acid] | > 30
23 | < 10 | C[C@H](N)C(=O)N1CCC([C@H](N)c2cc(Cl)c(Cl)cc2O)CC1 (single isomer, unassigned) [Compound 75] | > 30
24 | < 0.5 | C[C@H](N)C(=O)N1CCC([C@@H](N)c2cc(Cl)c(Cl)cc2O)CC1 (single isomer, unassigned) [Compound 76] | > 30
25 | < 0.5 | N[C@@H](c1cc(Cl)c(Cl)cc1O)C1CCN(C(=O)[C@@H]2CCNC2)CC1 (single isomer, unassigned) [Compound 80] | > 30
26 | < 30 | CC(C)c1cc(O)c([C@H](N)C2CCN(C(=O)[C@H](O)CO)CC2)cc1Cl [Compound 282, (2R)-1-(4-((R)-amino(5-chloro-2-hydroxy-4-isopropylphenyl)methyl)piperidin-1-yl)-2,3-dihydroxypropan-1-one] | –
27 | < 10 | N[C@H](c1c(O)cc(Cl)c(Cl)c1F)C1CCN(C(=O)[C@H](O)CO)CC1 [Compound 287, (R)-1-(4-((S)-amino(3,4-dichloro-2-fluoro-6-hydroxyphenyl)methyl)piperidin-1-yl)-2,3-dihydroxypropan-1-one] | –
28 | < 10 | NC(c1cc(Cl)c(Cl)c(F)c1O)C1CCN(C(=O)[C@H](O)CO)CC1 (stereo partly drawn) [Compound 290, (2R)-1-[4-[amino(4,5-dichloro-3-fluoro-2-hydroxyphenyl)methyl]piperidin-1-yl]-2,3-dihydroxypropan-1-one Trifluoroacetic Acid] | –
29 | < 10 | Cc1ccc([C@H](N)C2CCN(C(=O)[C@H](O)CO)CC2)c(O)c1 [Compound 294, (2R)-1-[4-[(R)-amino(2-hydroxy-4-methylphenyl)methyl]piperidin-1-yl]-2,3-dihydroxypropan-1-one Trifluoroacetic Acid] | –
30 | < 10 | N[C@H](c1cc(Cl)c(Cl)cc1O)[C@@H]1CCN(C(=O)[C@H](O)CO)C1 [Compound 310, (2R)-1-[(3R)-3-[(S)-amino(4,5-dichloro-2-hydroxyphenyl)methyl]pyrrolidin-1-yl]-2,3-dihydroxypropan-1-one] | –
31 | < 10 | N[C@@H](c1cc(Cl)c(Cl)cc1O)C1C2CCC1CN(C(=O)[C@H](O)CO)C2 (stereo partly drawn) [Compound 313, (2R)-1-[8-[(R)-amino(4,5-dichloro-2-hydroxyphenyl)methyl]-3-azabicyclo[3.2.1]octan-3-yl]-2,3-dihydroxypropan-1-one Trifluoroacetic Acid] | –
32 | < 30 | N[C@H](c1cc(Cl)c(Cl)cc1O)C1C2CCC1CN(C(=O)[C@H](O)CO)C2 (stereo partly drawn) [Compound 314, (2R)-1-[8-[(S)-amino(4,5-dichloro-2-hydroxyphenyl)methyl]-3-azabicyclo[3.2.1]octan-3-yl]-2,3-dihydroxypropan-1-one Trifluoroacetic Acid] | –
33 | < 10 | N[C@@H](c1cc(Cl)c(Cl)cc1O)C1CC2CC1CN2C(=O)[C@H](O)CO (stereo partly drawn) [Compound 315, (2R)-1-(5-((R)-amino(4,5-dichloro-2-hydroxyphenyl)methyl)-2-azabicyclo[2.2.1]heptan-2-yl)-2,3-dihydroxypropan-1-one Trifluoroacetic Acid] | –
34 | < 10 | N[C@H](c1cc(Cl)c(Cl)cc1O)C1CC2CC1CN2C(=O)[C@H](O)CO (stereo partly drawn) [Compound 316, (2R)-1-(5-((S)-amino(4,5-dichloro-2-hydroxyphenyl)methyl)-2-azabicyclo[2.2.1]heptan-2-yl)-2,3-dihydroxypropan-1-one Trifluoroacetic Acid] | –
35 | < 30 | N[C@@H](c1cc(Cl)c(C2=CCCC2)cc1O)C1CCN(C(=O)[C@H](O)CO)CC1 [Compound 318, (2R)-1-[4-[(R)-amino[5-chloro-4-(cyclopent-1-en-1-yl)-2-hydroxyphenyl]methyl]piperidin-1-yl]-2,3-dihydroxypropan-1-one Trifluoroacetic Acid] | –
36 | > 10 | N[C@H](c1cc(Cl)c(Cl)cc1O)[C@@H]1CCCN(C(=O)[C@H](O)CO)C1 [Compound 330, (2R)-1-[(3R)-3-[(S)-amino(4,5-dichloro-2-hydroxyphenyl)methyl]piperidin-1-yl]-2,3-dihydroxypropan-1-one Trifluoroacetic Acid] | –
37 | < 10 | CN[C@@H](c1cc(Cl)c(Cl)cc1O)C1CCN(C(=O)[C@H](O)CO)CC1 [Compound 337, (2R)-1-[4-[(R)-(4,5-dichloro-2-hydroxyphenyl)(methylamino)methyl]piperidin-1-yl]-2,3-dihydroxypropan-1-one] | –
